According to ChEMBL document CHEMBL1141575, “Preparation and in vitro biological evaluation of tetrapyrrole ethanolamide derivatives as potential anticancer agents” (Bioorg Med Chem Lett, 2008):

Tests used:
HeLa [1] = assay: Survival of human HeLa cells at 0.1 uM under deem light after 96 hrs by MTT assay relative to control; assay type: functional; conditions: read-out: Survival
HeLa [2] = assay: Survival of human HeLa cells at 10 uM under deem light after 96 hrs by MTT assay relative to control; assay type: functional; conditions: read-out: Survival
HeLa [3] = assay: Survival of human HeLa cells at 50 uM under deem light after 96 hrs by MTT assay relative to control; assay type: functional; conditions: read-out: Survival
HeLa [4] = assay: Survival of human HeLa cells at 100 uM under deem light after 96 hrs by MTT assay relative to control; assay type: functional; conditions: read-out: Survival
NCI-H69 [5] = assay: Survival of human H69 cells at 0.1 uM under deem light after 96 hrs by MTT assay relative to control; assay type: functional; conditions: NCI-H69, 96 h, read-out: Survival
NCI-H69 [6] = assay: Survival of human H69 cells at 10 uM under deem light after 96 hrs by MTT assay relative to control; assay type: functional; conditions: NCI-H69, 96 h, read-out: Survival
NCI-H69 [7] = assay: Survival of human H69 cells at 50 uM under deem light after 96 hrs by MTT assay relative to control; assay type: functional; conditions: NCI-H69, 96 h, read-out: Survival
NCI-H69 [8] = assay: Survival of human H69 cells at 100 uM under deem light after 96 hrs by MTT assay relative to control; assay type: functional; conditions: NCI-H69, 96 h, read-out: Survival
[9] = Survival of human H209 cells at 0.1 uM under deem light after 96 hrs by MTT assay relative to control; assay type: functional; conditions: NCI-H209, 96 h, read-out: Survival
[10] = Survival of human H209 cells at 10 uM under deem light after 96 hrs by MTT assay relative to control; assay type: functional; conditions: NCI-H209, 96 h, read-out: Survival
[11] = Survival of human H209 cells at 50 uM under deem light after 96 hrs by MTT assay relative to control; assay type: functional; conditions: NCI-H209, 96 h, read-out: Survival
[12] = Survival of human H209 cells at 100 uM under deem light after 96 hrs by MTT assay relative to control; assay type: functional; conditions: NCI-H209, 96 h, read-out: Survival
[13] = Survival of human 2780.9S cells at 0.1 uM under deem light after 96 hrs by MTT assay relative to control; assay type: functional; conditions: read-out: Survival
[14] = Survival of human 2780.9S cells at 10 uM under deem light after 96 hrs by MTT assay relative to control; assay type: functional; conditions: read-out: Survival
[15] = Survival of human 2780.9S cells at 50 uM under deem light after 96 hrs by MTT assay relative to control; assay type: functional; conditions: read-out: Survival
[16] = Survival of human 2780.9S cells at 100 uM under deem light after 96 hrs by MTT assay relative to control; assay type: functional; conditions: read-out: Survival
[17] = Survival of human MDA-MB cells at 0.1 uM under deem light after 96 hrs by MTT assay relative to control; assay type: functional; conditions: read-out: Survival
[18] = Survival of human MDA-MB cells at 10 uM under deem light after 96 hrs by MTT assay relative to control; assay type: functional; conditions: read-out: Survival
[19] = Survival of human MDA-MB cells at 50 uM under deem light after 96 hrs by MTT assay relative to control; assay type: functional; conditions: read-out: Survival
[20] = Survival of human MDA-MB cells at 100 uM under deem light after 96 hrs by MTT assay relative to control; assay type: functional; conditions: read-out: Survival
SiHa [21] = assay: Cytotoxicity against human SIHA cells under deem light after 96 hrs by MTT assay; assay type: functional, cell-based
Raji [22] = assay: Cytotoxicity against human Raji cells under deem light after 96 hrs by MTT assay; assay type: functional, cell-based
[23] = Cytotoxicity against human MDA-MB cells under deem light after 96 hrs by MTT assay; assay type: functional, cell-based
K562 [24] = assay: Cytotoxicity against human K562 cells under deem light after 96 hrs by MTT assay; assay type: functional, cell-based; conditions: K562, 96 h
HeLa [25] = assay: Cytotoxicity against human HeLa cells under deem light after 96 hrs by MTT assay; assay type: functional, cell-based
NCI-H69 [26] = assay: Cytotoxicity against human H69 cells under deem light after 96 hrs by MTT assay; assay type: functional, cell-based; conditions: NCI-H69, 96 h
Daudi = assay: Cytotoxicity against human Daudi cells under deem light after 96 hrs by MTT assay; assay type: functional, cell-based
[27] = Cytotoxicity against human 2780.9S cells under deem light after 96 hrs by MTT assay; assay type: functional, cell-based
[28] = Photohemolysis in human RBC at 250 nM in absence of light; assay type: ADME, cell-based, Erythrocyte; conditions: human red blood cells, read-out: Activity
[29] = Photohemolysis in human RBC at 190 nM under exposure to light for 10 mins; assay type: ADME, cell-based, Erythrocyte; conditions: human red blood cells, read-out: Activity
[30] = Photohemolysis in human RBC assessed as concentration required to 50% hemolysis under light exposure for 5 mins; assay type: ADME, cell-based, Erythrocyte; conditions: human red blood cells, read-out: Activity
[31] = Photohemolysis in human RBC assessed as concentration required to 50% hemolysis under light exposure for 10 mins; assay type: ADME, cell-based, Erythrocyte; conditions: human red blood cells, read-out: Activity
SiHa [32] = assay: Survival of human SIHA cells at 1 uM under deem light after 96 hrs by MTT assay relative to control; assay type: functional; conditions: read-out: Survival
K562 [33] = assay: Survival of human K562 cells at 1 uM under deem light after 96 hrs by MTT assay relative to control; assay type: functional; conditions: K562, 96 h, read-out: Survival
Raji [34] = assay: Survival of human Raji cells at 1 uM under deem light after 96 hrs by MTT assay relative to control; assay type: functional; conditions: read-out: Survival
HeLa [35] = assay: Survival of human HeLa cells at 1 uM under deem light after 96 hrs by MTT assay relative to control; assay type: functional; conditions: read-out: Survival
NCI-H69 [36] = assay: Survival of human H69 cells at 1 uM under deem light after 96 hrs by MTT assay relative to control; assay type: functional; conditions: NCI-H69, 96 h, read-out: Survival
[37] = Survival of human H209 cells at 1 uM under deem light after 96 hrs by MTT assay relative to control; assay type: functional; conditions: NCI-H209, 96 h, read-out: Survival
[38] = Survival of human 2780.9S cells at 1 uM under deem light after 96 hrs by MTT assay relative to control; assay type: functional; conditions: read-out: Survival
[39] = Survival of human MDA-MB cells at 1 uM under deem light after 96 hrs by MTT assay relative to control; assay type: functional; conditions: read-out: Survival
SiHa [40] = assay: Survival of human SIHA cells at 10 uM under deem light after 96 hrs by MTT assay relative to control; assay type: functional; conditions: read-out: Survival
SiHa [41] = assay: Survival of human SIHA cells at 50 uM under deem light after 96 hrs by MTT assay relative to control; assay type: functional; conditions: read-out: Survival
SiHa [42] = assay: Survival of human SIHA cells at 100 uM under deem light after 96 hrs by MTT assay relative to control; assay type: functional; conditions: read-out: Survival
K562 [43] = assay: Survival of human K562 cells at 0.1 uM under deem light after 96 hrs by MTT assay relative to control; assay type: functional; conditions: K562, 96 h, read-out: Survival
K562 [44] = assay: Survival of human K562 cells at 10 uM under deem light after 96 hrs by MTT assay relative to control; assay type: functional; conditions: K562, 96 h, read-out: Survival
K562 [45] = assay: Survival of human K562 cells at 50 uM under deem light after 96 hrs by MTT assay relative to control; assay type: functional; conditions: K562, 96 h, read-out: Survival
K562 [46] = assay: Survival of human K562 cells at 100 uM under deem light after 96 hrs by MTT assay relative to control; assay type: functional; conditions: K562, 96 h, read-out: Survival
Raji [47] = assay: Survival of human Raji cells at 0.1 uM under deem light after 96 hrs by MTT assay relative to control; assay type: functional; conditions: read-out: Survival
Raji [48] = assay: Survival of human Raji cells at 10 uM under deem light after 96 hrs by MTT assay relative to control; assay type: functional; conditions: read-out: Survival
Raji [49] = assay: Survival of human Raji cells at 50 uM under deem light after 96 hrs by MTT assay relative to control; assay type: functional; conditions: read-out: Survival
Raji [50] = assay: Survival of human Raji cells at 100 uM under deem light after 96 hrs by MTT assay relative to control; assay type: functional; conditions: read-out: Survival

C=Cc1c(C)c2cc3nc(c(CC(=O)OC)c4[nH]c(cc5nc(cc1[nH]2)C(C)=C5CC)c(C)c4C(=O)NCCO)C(CCC(=O)OC)C3C (stereo unspecified) [PHEOPHORBIDE A ETHANOLAMIDE] gave a viability at 0.1 µM (HeLa [1]) of 126%, a viability at 10 µM (HeLa [2]) of 113% and a viability at 50 µM (HeLa [3]) of 6.3%. The viability at 100 µM (HeLa [4]) was 7.8%, the viability at 0.1 µM (NCI-H69 [5]) was 95.7% and the viability at 10 µM (NCI-H69 [6]) was 98.4%. It also gave a viability at 50 µM (NCI-H69 [7]) of 58.7%, a viability at 100 µM (NCI-H69 [8]) of 14.4% and a viability at 0.1 µM [9] of 102%. For the same molecule, the viability at 10 µM [10] was 106%, the viability at 50 µM [11] was 59.4% and the viability at 100 µM [12] was 5.2%. For the same molecule, the viability at 0.1 µM [13] was 98.8%, the viability at 10 µM [14] was 99% and the viability at 50 µM [15] was 1.7%. For the same molecule, the viability at 100 µM [16] was 1.7%, the viability at 0.1 µM [17] was 110% and the viability at 10 µM [18] was 107%. The viability at 50 µM [19] was 1.6%, the viability at 100 µM [20] was 1.6% and the IC50 (SiHa [21]) was 35 µM. The IC50 (Raji [22]) was 35 µM, the IC50 [23] was 35 µM and the IC50 (K562 [24]) was 35 µM. The IC50 (HeLa [25]) was 35 µM, the IC50 (NCI-H69 [26]) was 55 µM and the IC50 (Daudi) was 35 µM. It also gave an IC50 [27] of 35 µM, a hemolysis at 0.25 µM [28] of 17% and a hemolysis at 10 min, 0.19 µM [29] of 100%. It also gave an HC50 at 5 min [30] of 80 nM, an HC50 at 10 min [31] of 140 nM and a viability at 1 µM (SiHa [32]) of 97.8%. For the same molecule, the viability at 1 µM (K562 [33]) was 113%, the viability at 1 µM (Raji [34]) was 119% and the viability at 1 µM (HeLa [35]) was 114%. The viability at 1 µM (NCI-H69 [36]) was 101%, the viability at 1 µM [37] was 102% and the viability at 1 µM [38] was 117%. It also gave a viability at 1 µM [39] of 121%, a viability at 10 µM (SiHa [40]) of 99.9% and a viability at 50 µM (SiHa [41]) of 1.2%. For the same molecule, the viability at 100 µM (SiHa [42]) was 1.1%, the viability at 0.1 µM (K562 [43]) was 129% and the viability at 10 µM (K562 [44]) was 115%. The viability at 50 µM (K562 [45]) was 6.1%, the viability at 100 µM (K562 [46]) was 2.9% and the viability at 0.1 µM (Raji [47]) was 118%. For the same molecule, the viability at 10 µM (Raji [48]) was 121%, the viability at 50 µM (Raji [49]) was 2.5% and the viability at 100 µM (Raji [50]) was 3.3%.
